Measurements as given in patent US20240374587A1, “MEDICINE FOR PREVENTION AND TREATMENT OF DISEASES LINKED TO ANTI-OBESITY ACTIVITY” (Shionogi & Co., Ltd., priority 2021, published 2024).

Experiments:
C57BL/6j mice (DIO mice) = test: Anti-obesity effect test in DIO mice (body weight, food consumption); type: in vivo; design: concentration or dose not given beside the values; settings: for Rate of decrease in body weight relative to control group: at final administration (Day 0 to Day 35, once a day)
Protocol: The anti-obesity effect of the compound and/or agent according to the present invention was examined by using C57BL/6j mice (DIO mice) provided with a high-fat diet (TestDiet; 58Y1).
Five-week-old male C57BL/6j mice (CLEA Japan. Inc.) were purchased, and grown with feeding of a high-fat diet under 12-hour light-dark cycles for 4 weeks to produce DIO mice. A medium (0.5% HPMC and physiological saline) was administered once a day from 3 weeks before administration of the compound. Randomization was performed for grouping (n=9 to 10) on the basis of body weight and change in food consumption during the period of administration for conditioning. From Day 0 to Day 35, gavage of vehicle (0.5% HPMC and physiological saline) (hereinafter, Control group), gavage of Compound (A) according to the present invention (hereinafter, (A)-administration group), subcutaneous administration of GLP-1 formulation (liraglutide or semaglutide) as Compound (B) according to the present invention (hereinafter, (B)-administration group), or both (hereinafter, the combined administration group) were performed once a day. The GLP-1 formulation was formulated in an increasing dose, and liraglutide and semaglutide were administered at 4 to 20 μg/kg and:3 to 15 μg/kg, respectively, once a day. During the administration period, daily body weight measurement and food consumption measurement once a week were performed.

human MGAT2 = human MGAT2 (Homo sapiens (Human), UniProt Q3SYC2); test: Measurement of human MGAT2 inhibitory activity; type: biochemical; settings: concentration exhibiting 50% enzyme inhibition
Chain of human MGAT2 (Q3SYC2 whole entry): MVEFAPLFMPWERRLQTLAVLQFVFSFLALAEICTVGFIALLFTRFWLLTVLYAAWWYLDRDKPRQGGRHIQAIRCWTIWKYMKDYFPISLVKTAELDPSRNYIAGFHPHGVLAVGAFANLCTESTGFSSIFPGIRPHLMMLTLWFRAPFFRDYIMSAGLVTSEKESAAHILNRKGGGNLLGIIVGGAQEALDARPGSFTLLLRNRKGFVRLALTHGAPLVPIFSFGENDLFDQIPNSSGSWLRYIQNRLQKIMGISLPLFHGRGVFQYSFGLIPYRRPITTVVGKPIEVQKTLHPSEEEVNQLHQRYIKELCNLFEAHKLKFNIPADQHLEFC
Protocol: Solutions of the compounds of the present invention in DMSO were each aliquoted into 0.2·μL portions in a 384-well polystyrene microplate produced by Corning Incorporated, and 5 μL of an enzyme solution prepared with an assay buffer (100 mmol/L phosphate buffer (pH 7.4) containing 2 mmol/L DTT) and 5 μL of a substrate solution (100 mmol/L phosphate buffer (pH 7.4), 30 μmol/L 2-Oleoylglycerol, 10 μmol/L Oleoyl-CoA) were added thereto, and the resultant was stirred and centrifuged, and incubated in a moist chamber at room temperature for 1 hour. After enzymatic reaction, 50 μL of a quenching solution (containing 0.2 μmol/L Diolein-d5, 0.4% formic acid, and 50% isopropanol) containing Internal Standard (IS) was added to terminate the reaction, and the resultant was sealed in a plate produced by Shimadzu GLC Ltd., and then stirred and centrifuged, and measurement was performed by using an electrospray ionization method with a RapidFire360 and Agilent 6550 Q-TOF mass spectrometer. Diolein as a reaction product (P) of 2-Oleoylglycerol as the substrate and an ammonium adduct ion of the IS were detected, and the peak intensity ratio, P/IS, was calculated from the peak heights to evaluate the inhibitory activity. Inhibitory activities with/without addition of enzyme were defined as Control (+)/Control (−), respectively, and the respective % inhibitions were defined as 0% inhibition and 100% inhibition. The inhibitory activity was calculated from the formula below with TIBCO Spotfire (produced by TIBCO Software Inc.) with the peak intensity ratio, P/IS, at the time of addition of the compound of the present invention being as Sample: […]

[1] = 1st week of administration, liraglutide study
[2] = 1st week of administration, semaglutide study
[3] = 2nd week of administration, liraglutide study
[4] = 2nd week of administration, semaglutide study
[5] = 3rd week of administration, liraglutide study
[6] = 3rd week of administration, semaglutide study
[7] = 4th week of administration, liraglutide study
[8] = 4th week of administration, semaglutide study
[9] = 5th week of administration, liraglutide study
[10] = 5th week of administration, semaglutide study

Molecule: CS(=O)(=O)CC(=O)Nc1c2c(nn1CCCOC(F)(F)F)C[C@@]1(CCOc3cc(OCC(F)(F)F)ccc31)NC2=O [II-121]
- Rate of decrease in food consumption relative to control group (C57BL/6j mice (DIO mice); [1]): 18.9%
- Rate of decrease in food consumption relative to control group (C57BL/6j mice (DIO mice); [2]): 15.7%
- Rate of decrease in food consumption relative to control group (C57BL/6j mice (DIO mice); [3]): 12.7%
- Rate of decrease in food consumption relative to control group (C57BL/6j mice (DIO mice); [4]): 10.5%
- Rate of decrease in food consumption relative to control group (C57BL/6j mice (DIO mice); [5]): 9.9%
- Rate of decrease in food consumption relative to control group (C57BL/6j mice (DIO mice); [6]): 7.3%
- Rate of decrease in food consumption relative to control group (C57BL/6j mice (DIO mice); [7]): 8.5%
- Rate of decrease in food consumption relative to control group (C57BL/6j mice (DIO mice); [8]): 3.9%
- Rate of decrease in food consumption relative to control group (C57BL/6j mice (DIO mice); [9]): 7.5%
- Rate of decrease in food consumption relative to control group (C57BL/6j mice (DIO mice); [10]): 1.6%
- Rate of decrease in body weight relative to control group (C57BL/6j mice (DIO mice); liraglutide study (FIG. 1)): 10.0%
- Rate of decrease in body weight relative to control group (C57BL/6j mice (DIO mice); semaglutide study (FIG. 2)): 5.5%
- IC50 (human MGAT2): 2.91 nM

Molecule: CS(=O)(=O)CC(=O)Nc1c(-c2ccc(F)c(F)c2)nn2c1C(=O)N[C@@]1(CCOc3cc(F)cc(F)c31)C2 [I′-126]
- IC50 (human MGAT2): 1.59 nM

Molecule: CS(=O)(=O)CC(=O)Nc1c(-c2ccc(F)c(F)c2)nn2c1C(=O)N[C@@]1(CCc3cc(F)cc(F)c31)C2 [I′-130]
- IC50 (human MGAT2): 4.51 nM

Molecule: CCOc1ccc2c(c1)OCC[C@]21Cn2nc(-c3ccc(F)c(F)c3)c(NC(=O)CS(C)(=O)=O)c2C(=O)N1 [I′-133]
- IC50 (human MGAT2): 1.39 nM

Molecule: CCS(=O)(=O)CC(=O)Nc1c(-c2ccc(C)cn2)nn2c1C(=O)N[C@@]1(CCOc3cc(F)cc(F)c31)C2 [I′-136]
- IC50 (human MGAT2): 4.97 nM

Molecule: CS(=O)(=O)CC(=O)Nc1c(-c2ccc(Cl)cn2)nn2c1C(=O)N[C@@]1(CCOc3cc(F)cc(F)c31)C2 [I′-137]
- IC50 (human MGAT2): 1.53 nM

Molecule: Cc1ccc(-c2nn3c(c2NC(=O)CS(C)(=O)=O)C(=O)N[C@@]2(CCc4cc(F)cc(F)c42)C3)nc1 [I′-139]
- IC50 (human MGAT2): 15.8 nM

Molecule: CS(=O)(=O)CC(=O)Nc1c(-c2ccc(C3CC3)cn2)nn2c1C(=O)N[C@@]1(CCc3cc(F)cc(F)c31)C2 [I′-141]
- IC50 (human MGAT2): 6.42 nM

Molecule: CS(=O)(=O)CC(=O)Nc1c(-c2ccc(Cl)cn2)nn2c1C(=O)N[C@@]1(CCc3cc(F)cc(F)c31)C2 [I′-142]
- IC50 (human MGAT2): 2.88 nM

Molecule: CS(=O)(=O)CC(=O)Nc1c(-c2ccc(C3CC3)cn2)nn2c1C(=O)N[C@@]1(CCOc3cc(F)cc(F)c31)C2 [I′-143]
- IC50 (human MGAT2): 3.43 nM

Molecule: CS(=O)(=O)CC(=O)Nc1c(-c2ccc(C(F)F)cc2)nn2c1C(=O)N[C@@]1(CCOc3cc(F)cc(F)c31)C2 [I′-145]
- IC50 (human MGAT2): 2.9 nM

Molecule: CS(=O)(=O)CC(=O)Nc1c(-c2ccc(Cl)cn2)nn2c1C(=O)N[C@]1(CCc3cc(F)cc(F)c31)C2 [I′-147]
- IC50 (human MGAT2): 3.5 nM

Molecule: CS(=O)(=O)CC(=O)Nc1c(-c2ccc(Cl)cn2)nn2c1C(=O)N[C@]1(CCOc3cc(F)cc(F)c31)C2 [I′-151]
- IC50 (human MGAT2): 5.33 nM

Molecule: CS(=O)(=O)CC(=O)Nc1c(-c2ccc(C(F)F)cn2)nn2c1C(=O)N[C@@]1(CCOc3cc(F)cc(F)c31)C2 [I′-153]
- IC50 (human MGAT2): 2.23 nM

Molecule: CCCCCCCCCCCCCCCC(=O)N[C@@H](CCC(=O)NCCCC[C@H](NC(=O)[C@H](C)NC(=O)[C@H](C)NC(=O)[C@H](CCC(N)=O)NC(=O)CNC(=O)[C@H](CCC(=O)O)NC(=O)[C@H](CC(C)C)NC(=O)[C@H](Cc1ccc(O)cc1)NC(=O)[C@H](CO)NC(=O)[C@H](CO)NC(=O)[C@@H](NC(=O)[C@H](CC(=O)O)NC(=O)[C@H](CO)NC(=O)[C@@H](NC(=O)[C@H](Cc1ccccc1)NC(=O)[C@@H](NC(=O)CNC(=O)[C@H](CCC(=O)O)NC(=O)[C@H](C)NC(=O)[C@@H](N)Cc1cnc[nH]1)[C@@H](C)O)[C@@H](C)O)C(C)C)C(=O)N[C@@H](CCC(=O)O)C(=O)N[C@@H](Cc1ccccc1)C(=O)N[C@H](C(=O)N[C@@H](C)C(=O)N[C@@H](Cc1c[nH]c2ccccc12)C(=O)N[C@@H](CC(C)C)C(=O)N[C@H](C(=O)N[C@@H](CCCNC(=N)N)C(=O)NCC(=O)N[C@@H](CCCNC(=N)N)C(=O)NCC(=O)O)C(C)C)[C@@H](C)CC)C(=O)O [Liraglutide, liraglutide, reference compound]
- Rate of decrease in food consumption relative to control group (C57BL/6j mice (DIO mice); [1]): 4.6%
- Rate of decrease in food consumption relative to control group (C57BL/6j mice (DIO mice); [3]): 9.4%
- Rate of decrease in food consumption relative to control group (C57BL/6j mice (DIO mice); [5]): 3.1%
- Rate of decrease in food consumption relative to control group (C57BL/6j mice (DIO mice); [7]): 2.4%
- Rate of decrease in food consumption relative to control group (C57BL/6j mice (DIO mice); [9]): 1.5%
- Rate of decrease in body weight relative to control group (C57BL/6j mice (DIO mice); liraglutide study (FIG. 1)): 4.2%

Molecule: semaglutide [reference compound]
- Rate of decrease in food consumption relative to control group (C57BL/6j mice (DIO mice); [2]): 8.5%
- Rate of decrease in food consumption relative to control group (C57BL/6j mice (DIO mice); [4]): 33.1%
- Rate of decrease in food consumption relative to control group (C57BL/6j mice (DIO mice); [6]): 18.2%
- Rate of decrease in food consumption relative to control group (C57BL/6j mice (DIO mice); [8]): 10.9%
- Rate of decrease in food consumption relative to control group (C57BL/6j mice (DIO mice); [10]): 6.0%
- Rate of decrease in body weight relative to control group (C57BL/6j mice (DIO mice); semaglutide study (FIG. 2)): 18.0%
